Key:
H^+ /K^+ ATPase = biological target: T1, H^+ /K^+ ATPase (Sus scrofa, UniProt P19156); assay: H^+ /K^+ ATPase Inhibitory Activity Assay; format: biochemical; details: pig stomach enzyme, 37° C., pH 6.2; for inhibition at 10 µg/mL: 10 μg/ml
T1 construct: prepared from the stomach of pig; from tissue; host or cells: pig stomach
Description: H^+ /K^+ ATPase Inhibitory Activity Assay
The inhibitory activity was determined in the following manner using H^+ /K^+ ATPase prepared from the stomach of pig.
H^+ /K^+ ATPase dilute solution (100 μl, 50 μg as protein) was added to PIPES-tris (pH 6.2) buffer solution (440 μl) containing 4 mM magnesium chloride and 20 mM potassium chloride. Further, 0.1% ethanol solution of nigericin (5 μl) was added. To the solution was added dimethyl sulfoxide (5 μl) and the mixture was incubated at 37° C. for 30 minutes. Then 10 mM PIPES-tris buffer solution (450 μl) containing 4 mM ATP disodium was added to initiate the reaction. 30 minutes later, 50% trichloroacetic acid (1 μl) was added to cease the reaction. The amount of phosphorus released in this reaction was determined by a color development determination at 800 nm according to D. Lebel, G. Poirier et al. method (Anal. Biochem. 85, 86-89, 1978), at which the reading of the absorbance is taken as C1. On the other hand, a similar determination was carried out in the absence of potassium chloride, at which the reading of the absorbance is taken as C2. The inhibitory activity was determined by a similar procedure as in the above reaction, but adding 5 μl of a dimethyl sulfoxide solution containing 1 to 20 mg/ml of the inhibiting substance (test compound), instead of dimethyl sulfoxide. In that case, the readings of the absorbance in the presence and absence of potassium chloride are taken as T1 and T2, respectively.
% Inhibition (I) of the inhibiting substance (test compound) is calculated by the following equation.

[1] = background statement; cited from earlier work

T1 sequence (P19156 2-1034 limits assumed): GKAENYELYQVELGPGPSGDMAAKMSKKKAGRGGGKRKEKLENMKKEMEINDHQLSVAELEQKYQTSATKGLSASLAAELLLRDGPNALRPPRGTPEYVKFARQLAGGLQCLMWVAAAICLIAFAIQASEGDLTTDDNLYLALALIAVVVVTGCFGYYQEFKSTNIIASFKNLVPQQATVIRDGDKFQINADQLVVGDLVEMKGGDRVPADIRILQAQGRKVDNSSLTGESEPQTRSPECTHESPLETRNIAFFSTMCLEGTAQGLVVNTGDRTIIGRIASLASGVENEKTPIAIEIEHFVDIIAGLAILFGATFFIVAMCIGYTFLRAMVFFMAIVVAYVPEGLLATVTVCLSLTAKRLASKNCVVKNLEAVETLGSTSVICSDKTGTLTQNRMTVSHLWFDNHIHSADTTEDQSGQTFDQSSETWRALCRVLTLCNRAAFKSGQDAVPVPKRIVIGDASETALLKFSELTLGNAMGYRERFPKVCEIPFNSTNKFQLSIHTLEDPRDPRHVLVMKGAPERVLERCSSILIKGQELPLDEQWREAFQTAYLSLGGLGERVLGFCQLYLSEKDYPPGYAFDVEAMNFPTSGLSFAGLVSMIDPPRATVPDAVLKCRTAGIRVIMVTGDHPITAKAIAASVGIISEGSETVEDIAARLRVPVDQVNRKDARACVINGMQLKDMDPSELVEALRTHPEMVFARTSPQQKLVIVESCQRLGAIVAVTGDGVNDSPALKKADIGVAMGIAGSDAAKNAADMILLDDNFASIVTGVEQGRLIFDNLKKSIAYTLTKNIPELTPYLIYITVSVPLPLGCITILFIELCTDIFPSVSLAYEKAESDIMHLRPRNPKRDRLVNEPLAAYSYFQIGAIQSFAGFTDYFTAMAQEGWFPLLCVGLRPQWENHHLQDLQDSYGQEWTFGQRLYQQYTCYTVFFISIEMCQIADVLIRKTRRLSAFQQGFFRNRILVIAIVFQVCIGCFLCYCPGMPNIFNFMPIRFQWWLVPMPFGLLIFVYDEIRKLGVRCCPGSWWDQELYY
T1 sequence (P18434 whole entry partner): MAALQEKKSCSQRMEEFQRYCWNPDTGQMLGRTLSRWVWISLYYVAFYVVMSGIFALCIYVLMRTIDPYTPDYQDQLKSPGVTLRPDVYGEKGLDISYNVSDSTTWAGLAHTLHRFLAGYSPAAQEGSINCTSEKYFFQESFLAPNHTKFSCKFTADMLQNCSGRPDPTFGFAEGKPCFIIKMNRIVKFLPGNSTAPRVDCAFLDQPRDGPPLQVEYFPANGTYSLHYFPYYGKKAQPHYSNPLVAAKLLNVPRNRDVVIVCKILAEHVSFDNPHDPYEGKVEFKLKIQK

SMILES | inhibition at 10 µg/mL (H^+ /K^+ ATPase) | also measured
CCOC(=O)N1CCCCC(c2ccc3c(c2)C2CCN(CC)CC2N3CC)c2[nH]c3ccccc3c2CC1 (stereo not shown) [Example 4, 6-(3-Ethoxycarbonyl-1,2,3,4,5,6,7,8-octahydro-azecino[5,4-b]indole-8-yl)-2,9-diethyl-1,2,3,4,4a,9a-hexahydropyrido[3,4-b]indole] | – | inhibition at 20 µg/mL (H^+ /K^+ ATPase; 20 μg/ml): 84%
CCN1CCC2c3cc(C(O)c4c(CCc5ccccn5)c5ccccc5n4S(=O)(=O)c4ccc(C)cc4)ccc3N(CC)C2C1 (stereo not shown) [Example 40] | 24.4% | –
CN1CC[C@H]2c3cc(C4CCCN(C(=O)OCc5ccccc5)CCc5c4[nH]c4ccccc54)ccc3N(C)[C@H]2C1 (stereo partly drawn) [Example 1, 4a,9a-cis-6-(3-Benzyloxycarbonyl-1,2,4,5,6,7-hexahydro-3H-azonino[5,4-b]indole-7-yl)-2,9-dimethyl-1,2,3,4,4a,9a-hexahydro-pyrido[3,4-b]indole] | 54.9% | –
COc1ccc2[nH]c([S+]([O-])Cc3ncc(C)c(OC)c3C)nc2c1 (stereo not shown) [Omeprazole] | – | occurrence of side effects [1]: occurrence of carcinoid
CCN1CCC2c3cc(C4CCCN(C(=O)OCc5ccccc5)CCc5c4[nH]c4ccccc54)ccc3N(CC)C2C1 (stereo not shown) [Example 11, 6-(3-Benzyloxycarbonyl-1,2,4,5,6,7-hexahydro-3H-azonino[5,4-b]indole-7-yl)-2,9-diethyl-1,2,3,4,4a,9a-hexahydropyrido[3,4-b]indole] | 97.5% | –
CCN1CCC2c3cc(C(C)c4[nH]c5ccccc5c4CCN(Cc4ccccc4)C(=O)OCc4ccccc4)ccc3N(CC)C2C1 (stereo not shown) [Example 19, 6-(1-(3-(2-Benzyl(benzyloxycarbonyl)aminoethyl)-indole-2-yl)ethyl)-2,9-diethyl-1,2,3,4,4a,9a-hexahydro-pyrido[3,4-b]indole] | 92.5% | –
CCN1CCC2c3cc(C4Cc5ccccc5CN(C(=O)OCc5ccccc5)CCc5c4[nH]c4ccccc54)ccc3N(CC)C2C1 (stereo not shown) [Example 10, 6-(13-Benzyloxycarbonyl-6,7,12,13,14,15-hexahydrobenzo[h]azecino[5,4-b]indole-6-yl)-2,9-diethyl-1,2,3,4,4a,9a-hexahydro-pyrido[3,4-b]indole] | – | inhibition at 5 µg/mL (H^+ /K^+ ATPase; 5 μg/ml): 98.4%

More lines, main results first:

inhibition at 10 µg/mL (H^+ /K^+ ATPase) | SMILES | also measured
65.7% | CCN1CCC2c3cc(C(OCc4ccccc4)c4c(CCN(Cc5ccccc5)Cc5ccccc5)c5ccccc5n4C)ccc3N(CC)C2C1 (stereo not shown) [Example 45, 6-(Benzyloxy-(3-(2-(N,N-dibenzylamino)ethyl)-1-methylindole-2-yl)-methyl)-2,9-diethyl-1,2,3,4,4a,9a-hexahydropyrido[3,4-b]indole] | –
80.8% | CCN1CCC2c3cc(C(O)c4c(CCN(Cc5ccccc5)Cc5ccccc5)c5ccccc5n4S(=O)(=O)c4ccc(C)cc4)ccc3N(CC)C2C1 (stereo not shown) [Example 34, 2,9-Diethyl-6-(3-(2-dibenzylaminoethyl)-1-tosyl-indole-2-yl)hydroxymethyl-1,2,3,4,4a,9a-hexahydro-pyrido[3,4-b]indole] | –
78.8% | CCN1CCC2c3cc(C(O)c4c(CCOCc5ccccc5)c5ccccc5n4Cc4ccccc4)ccc3N(CC)C2C1 (stereo not shown) [Example 39, 2,9-Diethyl-6-(3-(2-benzyloxyethyl)-1-benzyl-indole-2-yl)hydroxymethyl-1,2,3,4,4a,9a-hexahydro-pyrido[3,4-b]indole] | –

Source: patent publication US5252580A, “Indole derivatives and anti-ulcer compositions thereof” (priority 1991, dated 1993)
